Read-outs that look alike come from different tables or passages of the source.
How the values were obtained:
[1] = biological target: T1, full-length tau (T40) in fibroblast cells (3T6) (Homo sapiens, UniProt P10636); assay: Cell-based assay for establishing EC50 (generation of the 12 kD fragment)
T1 construct: fibroblast cells (3T6) express full-length tau (“T40”) under control of an inducible promoter; low constitutive levels of the PHF-core tau fragment (12 kD fragment); expressed in transfected cells; host or cells: 3T6 fibroblast cells
T1 sequence (P10636 2-441 isoform P10636-8 limits assumed): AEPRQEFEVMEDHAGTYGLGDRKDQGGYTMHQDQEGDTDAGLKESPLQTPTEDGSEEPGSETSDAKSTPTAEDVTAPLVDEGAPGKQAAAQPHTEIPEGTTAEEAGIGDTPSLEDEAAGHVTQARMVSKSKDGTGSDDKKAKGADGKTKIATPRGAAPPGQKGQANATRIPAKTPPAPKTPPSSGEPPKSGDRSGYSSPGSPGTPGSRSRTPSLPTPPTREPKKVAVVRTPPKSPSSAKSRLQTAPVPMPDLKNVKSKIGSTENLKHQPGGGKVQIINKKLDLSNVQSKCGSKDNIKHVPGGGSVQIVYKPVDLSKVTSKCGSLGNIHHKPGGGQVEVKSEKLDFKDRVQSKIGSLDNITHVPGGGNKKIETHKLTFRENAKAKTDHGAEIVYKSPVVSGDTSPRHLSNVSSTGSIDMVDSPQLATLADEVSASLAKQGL
Description: Briefly, fibroblast cells (3T6) express full-length tau (“T40”) under control of an inducible promoter, and low constitutive levels of the PHF-core tau fragment (12 kD fragment). When T40 expression is induced, it undergoes aggregation-dependent truncation within the cell, N-terminally at ˜αα295 and C-terminally at ˜αα390, thereby producing higher levels of the 12 kD PHF-core domain fragment. […] Indeed, the quantitation of inhibitory activity of compounds with respect to proteolytic generation of the 12 kD fragment within cells can be described entirely in terms of the same parameters that describe inhibition of tau-tau binding in vitro. That is, the extent of proteolytic generation of the 12 kD fragment within cells is determined entirely by the extent of tau-tau binding through the repeat domain. The availability of the relevant proteases within the cell is non-limiting.
Results are expressed as the concentration at which there is a 50% inhibition of generation of the 12 kD fragment. This is referred to as the EC50 value.

fibroblast cells (3T6) = type: cell-based; settings: therapeutic index, RxI = LD50/EC50
Description: Toxicity of the compounds described herein was assessed in the cell based assay used to assess EC50. […] Alternatively, a kit from Promega UK (CytoTox 96) was used, again according to the manufacturer's instructions.

[2] = Partition coefficient, n-octanol/water, visible spectrophotometry; type: physicochemical
Description: In this study, aqueous solutions of selected compounds were shaken with n-octanol and aliquots concentrations in each phase determined by visible spectrophotometry. The log10P was then calculated for each compound, using the following formula:

[3] = Stability in aqueous solution (percent reduced form by absorbance at 610 nm and 665 nm); type: physicochemical
Description: The compounds were weighed into universal containers. Enough water was added to yield a 1 mM solution, and the mixture stirred to dissolve the solid. The absorbance was determined at 610 nm and 665 nm for 50 μL samples (in triplicate) of each of the solutions at various time points. The initial time point taken was at 10 minutes as the compounds took time to dissolve completely. A UV/visible spectrum was also recorded at time points 20 minutes, 3 hours, and 18 hours.

[4] = Stability of the solid form in storage; type: physicochemical
Description: A batch of N,N,N′,N′-tetramethyl-10H-phenothiazine-3,7-diamine bis(hydrogen bromide) was prepared in April 2006 and analysed by NMR. […] The colour of the solid remained consistent over time. It appears that the molecule, in this form, is stable under these conditions over this time period.

[5] = concentration at which there is a 50% inhibition of generation of the 12 kD fragment, 3T6 cells, read-out: EC50

Structure (SMILES)	EC50 [1, 5] [nM]	RxI (fibroblast cells (3T6))	Log10P [2]	other results
Nc1ccc2c(c1)Sc1cc(N)ccc1N2 [Compound B4, 3,7-Diamino-phenothiazine bis(hydrogen chloride)]	2230	–	–	–
CN(C)c1ccc2c(c1)Sc1cc(N(C)C)ccc1N2 [Compound B6, N,N,N′,N′-Tetramethyl-10H-phenothiazine-3,7-diamine bis(hydrogen iodide)]	–	303	−0.498	EC50 [1]: 380 nM; time remaining substantially stable (>50% reduced form) ([3]; 1 mM solution in water): ~3 h; rate of autoxidation ([3]; aqueous solution, compared to the chloride compound (Compound B3)): slower
CN(C)c1ccc2c(c1)Sc1cc(N(C)C)ccc1N2 [N,N,N′,N′-Tetramethyl-10H-phenothiazine-3,7-diamine bis(hydrogen bromide]	–	–	–	stability of solid after storage (NMR, colour) ([4]; solid, 10 months of storage in the dark at room temperature): stable
CN(C)c1ccc2c(c1)Sc1cc(N(C)C)ccc1N2 [Compound B3, N,N,N′,N′-Tetramethyl-10H-phenothiazine-3,7-diamine bis(hydrogen chloride)]	500	88	−0.13	state of solid form after storage ([4]; solid form, after 2 years in storage): substantially reduced

From patent US12324810B2, “3, 7-diamino-10H-phenothiazine salts and their use” (WisTa Laboratories Ltd., priority 2006, dated 2025)
